Measured values as given in patent publication US8759318B2, “Phosphoramidate derivatives of guanosine nucleoside compounds for treatment of viral infections” (Inhibitex, Inc., priority 2009, dated 2014).

Assays:
in vitro = details: human
[1] = test system: HCV replicon (Genotype 1b); experiment: Luciferase genotype 1b replicon potency assay; details: Hepatitis C virus, GETYPE1B, read-out: IC50 μM, HCV genotype 1b luciferase replicon, Renilla luciferase reporter

COc1nc(N)nc2c1ncn2C1O[C@H](CO[P@](=O)(N[C@@H](C)C(=O)OCC(C)(C)C)Oc2cccc3ccccc23)[C@@H](O)[C@@]1(C)O (single isomer, unassigned) [Example 22]
CC50 (in vitro): 6 µM | IC50 [1]: 0.019 µM

COc1nc(N)nc2c1ncn2C1O[C@H](COP(=O)(N[C@@H](C)C(=O)OCc2ccc(F)cc2F)Oc2cccc3ccccc23)[C@@H](O)[C@@]1(C)O (stereo partly drawn) [Example 14, (2S)-2,4-difluorobenzyl 2-((((2R,3R,4R)-5-(2-amino-6-methoxy-9H-purin-9-yl)-3,4-dihydroxy-4-methyltetrahydrofuran-2-yl)methoxy)(naphthalen-1-yloxy)phosphorylamino)propanoate]
CC50 (in vitro): 15 µM | IC50 [1]: 0.04 µM

COc1nc(N)nc2c1ncn2C1O[C@H](COP(=O)(N[C@@H](C)C(=O)O[C@@H](C)c2ccccc2)Oc2cccc3ccccc23)[C@@H](O)[C@@]1(C)O (some centres unmarked) [Example 15]
CC50 (in vitro): 12 µM | IC50 [1]: 0.032 µM

COc1nc(N)nc2c1ncn2C1O[C@H](COP(=O)(N[C@@H](C)C(=O)OC2Cc3ccccc3C2)Oc2cccc3ccccc23)[C@@H](O)[C@@]1(C)O (stereo partly drawn) [Example 16, (2S)-2,3-dihydro-1H-inden-2-yl 2-((((2R,3R,4R)-5-(2-amino-6-methoxy-9H-purin-9-yl)-3,4-dihydroxy-4-methyltetrahydrofuran-2-yl)methoxy) (naphthalen-1-yloxy)phosphorylamino)propanoate]
CC50 (in vitro): 11 µM | IC50 [1]: 0.027 µM

CCCOC(=O)[C@H](C)NP(=O)(OC[C@H]1OC(n2cnc3c(OC)nc(N)nc32)[C@](C)(O)[C@@H]1O)Oc1cccc2ccccc12 (stereo partly drawn) [Example 17, (2S)-propyl 2-((((2R,3R,4R)-5-(2-amino-6-methoxy-9H-purin-9-yl)-3,4-dihydroxy-4-methyltetrahydrofuran-2-yl)methoxy)(naphthalen-1-yloxy)phosphorylamino)propanoate]
CC50 (in vitro): 12 µM | IC50 [1]: 0.029 µM

COc1nc(N)nc2c1ncn2C1O[C@H](COP(=O)(N[C@@H](C)C(=O)OCCC(C)(C)C)Oc2cccc3ccccc23)[C@@H](O)[C@@]1(C)O (stereo partly drawn) [Example 18, (2S)-3,3-dimethylbutyl 2-((((2R,3R,4R)-5-(2-amino-6-methoxy-9H-purin-9-yl)-3,4-dihydroxy-4-methyltetrahydrofuran-2-yl)methoxy)(naphthalen-1-yloxy)phosphorylamino)propanoate]
CC50 (in vitro): 7.6 µM | IC50 [1]: 0.013 µM

COc1nc(N)nc2c1ncn2C1O[C@H](COP(=O)(N[C@@H](C)C(=O)OCC(C)C)Oc2cccc3ccccc23)[C@@H](O)[C@@]1(C)O (stereo partly drawn) [Example 19, (2S)-isobutyl 2-((((2R,3R,4R)-5-(2-amino-6-methoxy-9H-purin-9-yl)-3,4-dihydroxy-4-methyltetrahydrofuran-2-yl)methoxy)(naphthalen-1-yloxy)phosphorylamino)propanoate]
CC50 (in vitro): 14 µM | IC50 [1]: 0.037 µM

COc1nc(N)nc2c1ncn2C1O[C@H](CO[P@@](=O)(N[C@@H](C)C(=O)OCC(C)(C)C)Oc2cccc3ccccc23)[C@@H](O)[C@@]1(C)O (some centres unmarked) [Example 21]
CC50 (in vitro): 13 µM | IC50 [1]: 0.043 µM

COc1nc(N)nc2c1ncn2C1O[C@H](COP(=O)(N[C@@H](C)C(=O)OC(C)C)Oc2cccc3ccccc23)[C@@H](O)[C@@]1(C)O (stereo partly drawn) [Example 23, (2S)-isopropyl 2-((((2R,3R,4R)-5-(2-amino-6-methoxy-9H-purin-9-yl)-3,4-dihydroxy-4-methyltetrahydrofuran-2-yl)methoxy)(naphthalen-1-yloxy)phosphorylamino)propanoate]
CC50 (in vitro): 100 µM | IC50 [1]: 0.43 µM

COc1nc(N)nc2c1ncn2C1O[C@H](COP(=O)(N[C@@H](C)C(=O)OC2CCCC2)Oc2cccc3ccccc23)[C@@H](O)[C@@]1(C)O (stereo partly drawn) [Example 24, (2S)-cyclopentyl 2-((((2R,3R,4R)-5-(2-amino-6-methoxy-9H-purin-9-yl)-3,4-dihydroxy-4-methyltetrahydrofuran-2-yl)methoxy)(naphthalen-1-yloxy)phosphorylamino)propanoate]
CC50 (in vitro): 9 µM | IC50 [1]: 0.02 µM

COc1nc(N)nc2c1ncn2C1O[C@H](COP(=O)(N[C@@H](C)C(=O)OC2CCCCC2)Oc2cccc3ccccc23)[C@@H](O)[C@@]1(C)O (stereo partly drawn) [Example 25, (2S)-cyclohexyl 2-((((2R,3R,4R)-5-(2-amino-6-methoxy-9H-purin-9-yl)-3,4-dihydroxy-4-methyltetrahydrofuran-2-yl)methoxy)(naphthalen-1-yloxy)phosphorylamino)propanoate]
CC50 (in vitro): 6 µM | IC50 [1]: 0.014 µM

COc1nc(N)nc2c1ncn2C1O[C@H](COP(=O)(N[C@@H](C)C(=O)OC2CCOCC2)Oc2cccc3ccccc23)[C@@H](O)[C@@]1(C)O (stereo partly drawn) [Example 26, (2S)-tetrahydro-2H-pyran-4-yl 2-((((2R,3R,4R)-5-(2-amino-6-methoxy-9H-purin-9-yl)-3,4-dihydroxy-4-methyltetrahydrofuran-2-yl)methoxy)(naphthalen-1-yloxy)phosphorylamino)propanoate]
CC50 (in vitro): 130 µM | IC50 [1]: 0.08 µM

COC(=O)[C@@H](C)c1ccc2cc(OP(=O)(N[C@@H](C)C(=O)OCc3ccc(F)cc3F)OC[C@H]3OC(n4cnc5c(OC)nc(N)nc54)[C@](C)(O)[C@@H]3O)ccc2c1 (stereo partly drawn) [Example 27, (2S)-2,4-difluorobenzyl 2-((((2R,3R,4R)-5-(2-amino-6-methoxy-9H-purin-9-yl)-3,4-dihydroxy-4-methyltetrahydrofuran-2-yl)methoxy)(6-((S)-1-methoxy-1-oxopropan-2-yl)naphthalen-2-yloxy)phosphorylamino)propanoate]
CC50 (in vitro): 28 µM | IC50 [1]: 0.055 µM

COC(=O)[C@@H](C)c1ccc2cc(OP(=O)(N[C@@H](C)C(=O)OCC(C)(C)C)OC[C@H]3OC(n4cnc5c(OC)nc(N)nc54)[C@](C)(O)[C@@H]3O)ccc2c1 (stereo partly drawn) [Example 28, (2S)-methyl 2-(6-((((2R,3R,4R)-5-(2-amino-6-methoxy-9H-purin-9-yl)-3,4-dihydroxy-4-methyltetrahydrofuran-2-yl)methoxy)((S)-1-(neopentyloxy)-1-oxopropan-2-ylamino)phosphoryloxy)naphthalen-2-yl)propanoate]
CC50 (in vitro): 19 µM | IC50 [1]: 0.023 µM

COc1nc(N)nc2c1ncn2C1O[C@H](COP(=O)(N[C@@H](CCSC)C(=O)OCc2ccccc2)Oc2cccc3ccccc23)[C@@H](O)[C@@]1(C)O (stereo partly drawn) [Example 58, (2S)-benzyl 2-((((2R,3R,4R)-5-(2-amino-6-methoxy-9H-purin-9-yl)-3,4-dihydroxy-4-methyltetrahydrofuran-2-yl)methoxy)(naphthalen-1-yloxy)phosphorylamino)-4-(methylthio)butanoate]
IC50 [1]: 0.22 µM

CCCOC(=O)[C@@H](NP(=O)(OC[C@H]1OC(n2cnc3c(OC)nc(N)nc32)[C@](C)(O)[C@@H]1O)Oc1cccc2ccccc12)c1ccccc1 (some centres unmarked) [Example 65]
IC50 [1]: 0.086 µM

C[C@@]1(O)[C@H](O)[C@@H](CO)O[C@H]1n1cnc2c(NCCc3ccccc3)nc(N)nc21 [Example 86, (3R,4R,5R)-2-(2-amino-6-(phenethylamino)-9H-purin-9-yl)-5-(hydroxymethyl)-3-methyltetrahydrofuran-3,4-diol]
IC50 [1]: 23.6 µM

COc1nc(N)nc2c1ncn2C1O[C@H](COP(=O)(N[C@@H](C(=O)OCc2ccccc2)c2ccccc2)Oc2cccc3ccccc23)[C@@H](O)[C@@]1(C)O (some centres unmarked) [compound 68]
CC50 (in vitro): 50 µM
